Data published in US10590120B2, “Pesticidal compositions and methods” (Dow AgroSciences LLC, priority 2016, dated 2020).

What was measured:
Assay type in all cases: in vivo
[1] = test system: Beet Armyworm (Spodoptera exigua, LAPHEG) ("BAW"); experiment: Insecticidal test for beet armyworm, 128-well diet tray assay; conditions: 168 h, second instar larvae, 50 μg/cm^2 on artificial diet, 25° C., five to seven days, percent mortality averaged over eight wells
Description: Insecticidal Test for Beet Armyworm (Spodoptera exigua, LAPHEG) (“BAW”)
(§1) Bioassays on beet armyworm (BAW; Spodoptera exigua: Lepidoptera) are conducted using a 128-well diet tray assay. One to five second instar BAW larvae are placed in each well (3 mL) of the diet tray that had been previously filled with 1 mL of artificial diet to which 50 μg/cm^2 of the test compound (dissolved in 50 μL of 90:10 acetone-water mixture) had been applied (to each of eight wells) and then allowed to dry. Trays are covered with a clear self-adhesive cover, vented to allow gas exchange, and held at 25° C., 14:10 light-dark for five to seven days. Percent mortality is recorded for the larvae in each well; activity in the eight wells is then averaged.

[2] = test system: Cabbage Looper (Trichloplusia ni, TRIPNI) ("CL"); experiment: Insecticidal test for cabbage looper, 128-well diet tray assay; conditions: Trichoplusia ni, 168 h; second instar larvae, 50 μg/cm^2 on artificial diet, 25° C., five to seven days, percent mortality averaged over eight wells
Description: Insecticidal Test for Cabbage Looper (Trichloplusia ni, TRIPNI) (“CL”)
as §1, with “cabbage looper (CL; Trichloplusia ni:” for “beet armyworm (BAW; Spodoptera exigua:”, “CL” for “BAW”

[3] = test system: Yellow Fever Mosquito (Aedes aegypti, AEDSAE) ("YFM"); experiment: Insecticidal test for yellow fever mosquito, 96-well plate larval assay; conditions: about 1 day-old larvae, 4000 ppm master solution diluted, room temperature, scored for mortality after 3 days
Description: Insecticidal Test for Yellow Fever Mosquito (Aedes aegypti, AEDSAE) (“YFM”)
Master plates containing 400 μg of a molecule dissolved in 100 μL of dimethyl sulfoxide (DMSO) (equivalent to a 4000 ppm solution) are used. A master plate of assembled molecules contains 15 μL per well. To this plate, 135 μL of a 90:10 water/acetone mixture is added to each well. A robot (Biomek® NXP Laboratory Automation Workstation) is programmed to dispense 15 μL aspirations from the master plate into an empty 96-well shallow plate (“daughter” plate). There are 6 reps (“daughter” plates) created per master. The created “daughter” plates are then immediately infested with YFM larvae.
The day before plates are to be treated, mosquito eggs are placed in Millipore water containing liver powder to begin hatching (4 g. into 400 mL). After the “daughter” plates are created using the robot, they are infested with 220 μL of the liver powder/larval mosquito mixture (about 1 day-old larvae). After plates are infested with mosquito larvae, a non-evaporative lid is used to cover the plate to reduce drying. Plates are held at room temperature for 3 days prior to grading. After 3 days, each well is observed and scored based on mortality.

| Structure (SMILES) | pest or weed control at 50 µg/cm2 [1] | pest or weed control at 50 µg/cm2 [2] | YFM % Control [3] |
| --- | --- | --- | --- |
| Cc1ccc(C(C)C)c(N2C(=O)CS/C2=N\C(=O)N/N=C/c2ccc(-c3ncn(-c4ccc(OC(F)(F)F)cc4)n3)cc2)c1 [Compound A1, N—((Z)-3-(2-isopropyl-5-methylphenyl)-4-oxothiazolidin-2-ylidene)-2-((E)-4-(1-(4-(trifluoromethoxy)phenyl)-1H-1,2,4-triazol-3-yl)benzylidene)hydrazine-1-carboxamide] | 50 to 100% | 50 to 100% | – |
| CCOc1ccc(C)cc1N1C(=O)CS/C1=N\C(=O)N/N=C/c1ccc(-c2ncn(-c3ccc(OC(F)(F)F)cc3)n2)cc1 [Compound A5, N—((Z)-3-(2-Ethoxy-5-methylphenyl)-4-oxothiazolidin-2-ylidene)-2-((E)-4-(1-(4-(trifluoromethoxy)phenyl)-1H-1,2,4-triazol-3-yl)benzylidene)hydrazine-1-carboxamide] | 50 to 100% | 50 to 100% | – |
| Cc1ccc(OCC(F)(F)F)c(N2C(=O)CS/C2=N\C(=O)N/N=C/c2ccc(-c3ncn(-c4ccc(OC(F)(F)F)cc4)n3)cc2)c1 [Compound A6, N—((Z)-3-(5-Methyl-2-(2,2,2-trifluoroethoxy)phenyl)-4-oxothiazolidin-2-ylidene)-2-((E)-4-(1-(4-(trifluoromethoxy)phenyl)-1H-1,2,4-triazol-3-yl)benzylidene)hydrazine-1-carboxamide] | 50 to 100% | 50 to 100% | – |
| Cc1ccc(Cl)c(N2C(=O)CS/C2=N\C(=O)N/N=C/c2ccc(-c3ncn(-c4ccc(OC(F)(F)F)cc4)n3)cc2)c1 [Compound A4, N—((Z)-3-(2-Chloro-5-methylphenyl)-4-oxothiazolidin-2-ylidene)-2-((E)-4-(1-(4-(trifluoromethoxy)phenyl)-1H-1,2,4-triazol-3-yl)benzylidene)hydrazine-1-carboxamide] | 50 to 100% | 50 to 100% | A (80-100) |
| CC(C)c1ccccc1N1C(=O)CS/C1=N\C(=O)N/N=C/c1ccc(-c2ncn(-c3ccc(OC(F)(F)F)cc3)n2)cc1 [Compound A2, N—((Z)-3-(2-Isopropylphenyl)-4-oxothiazolidin-2-ylidene)-2-((E)-4-(1-(4-(trifluoromethoxy)phenyl)-1H-1,2,4-triazol-3-yl)benzylidene)hydrazine-1-carboxamide] | 50 to 100% | 50 to 100% | A (80-100) |
| CCc1cccc(C)c1N1C(=O)CS/C1=N\C(=O)N/N=C/c1ccc(-c2ncn(-c3ccc(OC(F)(F)F)cc3)n2)cc1 [Compound A3, N—((Z)-3-(2-Ethyl-6-methylphenyl)-4-oxothiazolidin-2-ylidene)-2-((E)-4-(1-(4-(trifluoromethoxy)phenyl)-1H-1,2,4-triazol-3-yl)benzylidene)hydrazine-1-carboxamide] | 50 to 100% | 50 to 100% | – |
| COc1ccc(N2C(=O)CS/C2=N\C(=O)N/N=C/c2ccc(-c3ncn(-c4ccc(OC(F)(F)F)cc4)n3)cc2)c(C)c1 [Compound A7, N—((Z)-3-(4-Methoxy-2-methylphenyl)-4-oxothiazolidin-2-ylidene)-2-((E)-4-(1-(4-(trifluoromethoxy)phenyl)-1H-1,2,4-triazol-3-yl)benzylidene)hydrazine-1-carboxamide] | 50 to 100% | 50 to 100% | A (80-100) |
| CCOc1ccccc1N1C(=O)CS/C1=N\C(=O)N/N=C/c1ccc(-c2ncn(-c3ccc(OC(F)(F)F)cc3)n2)cc1 [Compound A8, N—((Z)-3-(2-Ethoxyphenyl)-4-oxothiazolidin-2-ylidene)-2-((E)-4-(1-(4-(trifluoromethoxy)phenyl)-1H-1,2,4-triazol-3-yl)benzylidene)hydrazine-1-carboxamide] | 50 to 100% | 50 to 100% | – |
| Cc1ccc(C(F)(F)F)c(N2C(=O)CS/C2=N\C(=O)N/N=C/c2ccc(-c3ncn(-c4ccc(OC(F)(F)F)cc4)n3)cc2)c1 [Compound A9, N—((Z)-3-(5-methyl-2-(trifluoromethyl)phenyl)-4-oxothiazolidin-2-ylidene)-2-((E)-4-(1-(4-(trifluoromethoxy)phenyl)-1H-1,2,4-triazol-3-yl)benzylidene)hydrazine-1-carboxamide] | 50 to 100% | 50 to 100% | – |
